pEC50: −log10 of the molar value.
Biological target: T1, Keap1 (321-609) Kelch domain / TAMRA-labeled NRF2 peptide (ETGE motif) (Homo sapiens, UniProt Q14145)
T1 construct: the Kelch domain (321-609) of Keap1 is used
Assay: NRF2-Keap1 FP Assay
Format: binding
Details: Keap1 (321-609) 20 nM, Tamra labeled peptide 8 nM
Description: One model for the NRF2-Keap1 interaction is through two binding sites in the Neh2 domain on NRF2. The two sites are referred to as the DLG binding motif (latch domain, uM affinity) and the ETGE binding motif (hinge domain, nM affinity). The Keap1 protein consists of an N-terminal region (NTR), a broad complex, tramtrack, and brick a' brac domain (BTB), an intervening region (IVR), a double glycine repeat domain (DGR or Kelch), and a C-terminal region. The DLG and ETGE motifs of NRF2's Neh2 domain bind to the Kelch domain of Keap1 at different affinities. In the Keap1 Kelch fluorescence polarization (FP) assay, a TAMRA-labeled 16mer peptide (AFFAQLQLDEETGEFL) containing the ETGE motif of NRF2 and the Kelch domain (321-609) of Keap1 is used. The assay determines if a compound interferes with the binding between Keap1 […] and the TAMRA-labeled peptide. Binding of TAMRA-labeled NRF2 peptide to Keap1 (321-609) results in a high FP signal. If a compound interferes with the binding between the peptide and the protein, it will cause the assay signal to decrease. Thus, assay signal is inversely proportional to binding inhibition.
100 nl of 100× compound dose response curves (serial 3-fold dilutions) in DMSO were stamped using an Echo liquid handling system (Labcyte) into 384-well low volume black assay plates (Greiner, #784076), with DMSO in columns 6 and 18. The top concentration of compound was located in columns 1 and 13. Keap1 (321-609) was diluted to 40 nM (2×) in 1× assay buffer (50 mM Tris, pH 8.0, 100 mM NaCl, 5 mM MgCl2, 1 mM DTT, 2 mM CHAPS, and 0.005% BSA) and 5 ul was added using a Multidrop Combi (Thermo Electron Corporation) equipped with a metal tip dispenser to all wells of the compound plate, except column 18. Column 18 received only 5 ul of assay buffer. Immediately, 5 uL of 16 nM (2×) of Tamra labeled peptide (AFFAQLQLDEETGEFL, 21st Century Biochemicals) was added to all wells of the plate. The plates were spun at 500 rpm for 1 min, incubated for 1 hr at room temperature, and read on an Analyst GT (Molecular Devices) equipped with excitation (530/25 nm) and emission (580/10 nm) filters designed for Tamra probes. A 561 nm dichroic mirror was also used in the Analyst. The final assay concentrations of Keap1l (321-609) and Tamra labeled peptide were 20 nM and 8 nM, respectively. Fluorescence measurements, represented as mP, were used in the transformation of the data. Compound activity was calculated based on percent inhibition, normalized against controls in the assay (Control 1 contains the Tamra peptide and Keap1 (321-609) together (0% response) and control 2 contains the Tamra peptide alone (100% response)). Data analysis was handled using the software package Abase XE (Surrey, United Kingdom. The % inhibition values were calculated by the equation:
100−(100*((compound response−average control 2)/(average control 1−average control2))).
For calculation of pIC50s, Abase XE used a four parameter equation.
IC50s<1 nM (+++++), IC50s 1 nM-10 nM (++++), IC50s 10-100 nM (+++), IC50s 100 nM-1 μM (++), IC50s 1-10 μM (+), IC50s>10 μM (−), or were not determined (ND).

T1 sequence (Q14145 321-609): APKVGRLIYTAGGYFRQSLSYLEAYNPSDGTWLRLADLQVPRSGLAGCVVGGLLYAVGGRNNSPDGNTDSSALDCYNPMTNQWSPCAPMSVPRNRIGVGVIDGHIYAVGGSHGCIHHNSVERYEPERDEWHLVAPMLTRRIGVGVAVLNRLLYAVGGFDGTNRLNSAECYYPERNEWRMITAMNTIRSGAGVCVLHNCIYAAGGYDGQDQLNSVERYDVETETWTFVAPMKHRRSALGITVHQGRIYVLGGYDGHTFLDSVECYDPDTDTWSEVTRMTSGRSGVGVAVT

pEC50 | SMILES
7.00 to 8.00 | CC[C@H]1Cc2ccccc2CN(Cc2cccc(-n3ncc(C(=O)O)c3[C@@H]3C[C@H]3c3cn(C)nn3)c2)C1 [Example 11]
8.00 to 9.00 | C[C@H]1Cc2ccc(C(F)(F)F)cc2S(=O)(=O)N(Cc2cccc(-n3ncc(C(=O)O)c3[C@@H]3C[C@H]3c3cn(C)nn3)c2)C1 (racemic) [Example 16, 1-(3-((4-methyl-1,1-dioxido-8-(trifluoromethyl)-4,5-dihydro-benzo[f][1,2]thiazepin-2(3H)-yl)methyl)phenyl)-5-((trans)-2-(1-methyl-1H-1,2,3-triazol-4-yl)cyclopropyl)-1H-pyrazole-4-carboxylic acid]
6.00 to 7.00 | CCOc1ccccc1S(=O)(=O)N(C)Cc1cccc(-n2ncc(C(=O)O)c2[C@@H]2C[C@H]2c2cn(C)nn2)c1 (racemic) [Example 45, 1-(3-((2-ethoxy-N-methylphenylsulfonamido)methyl)phenyl)-5-((trans)-2-(1-methyl-1H-1,2,3-triazol-4-yl)cyclopropyl)-1H-pyrazole-4-carboxylic acid]
8.00 to 9.00 | CC[C@H]1Cc2ccccc2S(=O)(=O)N(Cc2cccc(-n3ncc(C(=O)O)c3[C@@H]3C[C@H]3c3cn(C)nn3)c2)C1 [Example 4]
> 9.00 | CCCC[C@H]1Cc2ccc(C(F)(F)F)cc2S(=O)(=O)N(Cc2cccc(-n3ncc(C(=O)O)c3[C@@H]3C[C@H]3c3cn(C)nn3)c2)C1 [Example 21, 1-(3-(((S)-4-butyl-1,1-dioxido-8-(trifluoromethyl)-4,5-dihydrobenzo[f][1,2]thiazepin-2(3H)-yl)methyl)phenyl)-5-((1R,2R)-2-(1-methyl-1H-1,2,3-triazol-4-yl)cyclopropyl)-1H-pyrazole-4-carboxylic acid]
7.00 to 8.00 | C[C@H]1Cc2cc(C(F)(F)F)ccc2S(=O)(=O)N(Cc2cccc(-n3ncc(C(=O)O)c3[C@@H]3C[C@H]3c3cnn(C)c3)c2)C1 [Example 30, 1-(3-(((S)-4-Methyl-1,1-dioxido-7-(trifluoromethyl)-4,5-dihydrobenzo[f][1,2]thiazepin-2(3H)-yl)methyl)phenyl)-5-(trans-2-(1-methyl-1H-pyrazol-4-yl)cyclopropyl)-1H-pyrazole-4-carboxylic acid]
8.00 to 9.00 | CC[C@@H]1CN(Cc2cc(-n3ncc(C(=O)O)c3C3C[C@H]3c3cn(C)nn3)ccc2C)S(=O)(=O)c2ccccc2O1 (stereo partly shown) [Example 25]
6.00 to 7.00 | COc1ccc(Cl)cc1S(=O)(=O)N(C)Cc1cccc(-n2ncc(C(=O)O)c2[C@@H]2C[C@H]2c2cn(C)nn2)c1 (racemic) [Example 40, 1-(3-((5-chloro-2-methoxy-N-methylphenyl-sulfonamido)-methyl)phenyl)-5-((trans)-2-(1-methyl-1H-1,2,3-triazol-4-yl)cyclo-propyl)-1H-pyrazole-4-carboxylic acid]
6.00 to 7.00 | COc1cc([N+](=O)[O-])ccc1S(=O)(=O)N(C)Cc1cccc(-n2ncc(C(=O)O)c2[C@@H]2C[C@H]2c2cn(C)nn2)c1 (racemic) [Example 44, 1-(3-((2-methoxy-N-methyl-4-nitrophenylsulfonamido)methyl)phenyl)-5-((trans)-2-(1-methyl-1H-1,2,3-triazol-4-yl)cyclopropyl)-1H-pyrazole-4-carboxylic acid]
6.00 to 7.00 | CN(Cc1cccc(-n2ncc(C(=O)O)c2[C@@H]2C[C@H]2c2cn(C)nn2)c1)S(=O)(=O)c1cccc2cccnc12 (racemic) [Example 51, 5-((trans)-2-(1-methyl-1H-1,2,3-triazol-4-yl)cyclopropyl)-1-(3-((N-methylquinoline-8-sulfonamido)methyl)phenyl)-1H-pyrazole-4-carboxylic acid]

From patent publication US20200071310A1, “N-ARYL PYRAZOLES AS NRF2 REGULATORS” (GLAXOSMITHKLINE INTELLECTUAL PROPERTY DEVELOPMENT LIMITED, priority 2016, published 2020)
